In article PMC12673733, “Hydroxyethylamine & phthalimide analogs restoring defects due to GNE dysfunction: rare disease therapeutic significance” (Molecular Medicine, 2025):

Biological target: T1, r-wtGNE (hGNE1; recombinant wild type GNE) (Homo sapiens, UniProt Q9Y223)
T1 construct: recombinant full-length GNE; expressed in E. coli, partially purified (methods also name pcDNA3.1 vector)
T1 sequence (Q9Y223 1-722): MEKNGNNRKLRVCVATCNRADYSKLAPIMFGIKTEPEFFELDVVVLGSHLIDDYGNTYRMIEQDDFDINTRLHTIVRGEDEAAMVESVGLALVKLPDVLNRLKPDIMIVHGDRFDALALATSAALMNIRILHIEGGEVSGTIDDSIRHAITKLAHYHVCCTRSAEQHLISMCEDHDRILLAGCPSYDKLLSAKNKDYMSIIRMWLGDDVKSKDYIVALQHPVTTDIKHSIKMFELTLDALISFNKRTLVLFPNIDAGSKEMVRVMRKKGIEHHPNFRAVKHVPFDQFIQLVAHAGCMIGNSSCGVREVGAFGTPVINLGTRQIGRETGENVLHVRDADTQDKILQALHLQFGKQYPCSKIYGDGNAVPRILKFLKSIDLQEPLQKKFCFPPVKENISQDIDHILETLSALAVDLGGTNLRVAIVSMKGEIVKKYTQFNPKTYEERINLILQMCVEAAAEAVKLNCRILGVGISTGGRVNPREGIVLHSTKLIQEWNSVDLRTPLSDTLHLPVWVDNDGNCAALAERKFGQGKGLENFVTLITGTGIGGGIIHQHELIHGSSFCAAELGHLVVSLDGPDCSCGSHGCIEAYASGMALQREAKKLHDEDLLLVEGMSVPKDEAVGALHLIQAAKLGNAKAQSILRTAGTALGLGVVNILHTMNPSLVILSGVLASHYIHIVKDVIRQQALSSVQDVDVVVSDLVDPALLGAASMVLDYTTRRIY
Assay: SPR, GNE immobilised on gold chip
Format: binding

Kd: 3 mM
SMILES: C[C@H](C(=O)N[C@@H](Cc1ccccc1)[C@@H](O)CN1CCN(Cc2ccccc2)CC1)c1ccccc1 [LTC-181, (S)-N-((2 S,3 S)−4-(4-benzylpiperazin-1-yl)−3-hydroxy-1-phenylbutan-2-yl)−2-phenylpropanamide]
